# Source: patent publication US3966744A, “Spin labeled compounds” (priority 1974, dated 1976)
# “And” between values parts separate entries of the source, which are not always exact repeats. Identical values can stand only once. Counter-ions that a name gives are not always drawn. Like-named read-outs stand apart in the source and are kept apart here.
# How the values were obtained:
# [1] = tested on: supported morphine antibodies; assay: Binding of free radical labeled morphine to supported morphine antibodies (ESR); parameters: species or system rabbit; settings: pH 8 borate buffer, 10^-4 M label, 2 hours
# [2] = Storage stability of the cocaine assay spin label (binding constant); type: physicochemical; settings: storage in distilled water, substantially metal ion free, carbon dioxide bubbled through
# Experimental: The spin labeled compound employed was prepared according to Example 7.1.
# [3] = tested on: dinitrophenyl antibodies; assay: Spin immunoassay with labeled dinitrophenyl hapten and dinitrophenyl antibodies (ESR); type: binding; settings: increasing amounts, 10^-5 M solution in water, maximum 14 μl
# Experimental: (The antibodies were prepared according to Eisen, et al., JACS, 75, 4583 (1953) and the labeled hapten was prepared in accordance with Hsia, et al, Archives of Biochemistry and Biophysics 132, 466 (1969)). The following procedure was employed. The quantities of the two compounds were chosen by adding small portions of the haptens to the antibody solution until the ESR signal intensity began to rise sharply with addition of each portion. At this point, all the binding sites on the antibodies were occupied by the label and the addition was stopped. Increasing amounts of N-epsilon-dinitrophenyllysine were then added to the solution.
# The labeled hapten was dissolved in 20 percent aq. methanol at about 1-2 × 10^-^5 M concentration. Approximately 10 μl of the antibody solution and 10-20 μl of the labeled hapten solution were combined and varying amounts of 10^-^5 M solution of N-epsilon-dinitrophenyllysine in water added, the maximum being 14 μl.
# By using appropriate standards, the ESR signal intensity may be related to the concentration of the N-epsilon dinitrophenyllysine in solution. Therefore, by taking an unknown solution suspected of having such a hapten, and introducing a standardized amount of the antibody-hapten complex, one can rapidly determine the concentration of the N-epsilon dinitrophenyllysine in solution.
# [4] = tested on: phenobarbital antibody; assay: Phenobarbital spin immunoassay; settings: 1 × 10^-5 M (2.2-2.6 μg/ml), pH 7, 10 µM
# [5] = tested on: secobarbital antibody; assay: Secobarbital (seconal) spin immunoassay
# [6] = tested on: Amphetamine antibody; assay: Amphetamine spin immunoassay; type: binding, rabbit; settings: for mobilization with urine of individuals who indicated taking cross reacting substances: six of 100 urines, background 10% or less
# Experimental: Two plastic cups were employed. In one cup was 2.5 μl of 0.2 M sodium dichromate. In the other cup was 5.0 μl of antibody solution. The sample was transferred employing a 25 μl Oxford Sampler and introduced into the cup containing dichromate. The dichromate sample solution was agitated by means of the sample, drawn up with the sampler and introduced into the cup containing antibody, without touching the antibody. To the resulting solution was then added 5 μl of spin label, the sample was then stirred with an ESR capillary tube, the sample allowed to rise into the capillary and the spectrum read.
# [7] = tested on: antibody (cocaine assay); type: binding, rabbit; settings: read from graph
# [8] = tested on: morphine antibody; assay: Detection of morphine and its metabolite in urine by spin immunoassay (ESR); type: binding, rabbit
# [9] = tested on: morphine antibodies; assay: Morphine spin immunoassay (ESR), specificity; settings: spin label of Example 2.1
# [10] = tested on: antibody (methadone assay); type: binding, rabbit; settings: 3.4 μg/ml
# Experimental: The spin immunoassay was carried out similarly to the prior assays. Two plastic cups were employed, one cup containing 5 μl of 0.2 molar sodium dichromate and the second 5 μl of borate buffered antibody at pH 8. […] To the dichromate is added 50 μl of sample and a 20 μl aliquot is transferred from the first cup to the second cup containing the antibody solution.
# Fifty-five urine samples were tested according to the above procedure.
# [11] = urine samples 6-10 of drug takers, percentage of maximum increase with high concentrations of morphine, drug taken
smiles,measurement,setting,value
"CN1CC[C@]23c4c5ccc(OCC(=O)NC6CC(C)(C)N([O])C(C)(C)C6)c4O[C@H]2[C@@H](O)C=C[C@H]3[C@H]1C5 [Example 2.2, 4-[2'(O^3"" Morphino)acetamido]-2,2,6,6-tetramethylpiperidino-1-oxyl]",binding of the free radical labeled morphine to the receptor (ESR signals),[1],broad ESR signals indicating the binding of the free radical labeled morphine to the receptor
COC(=O)[C@H]1[C@@H](OC(=O)c2ccc(NC(=O)C3CC(C)(C)N([O])C3(C)C)cc2)C[C@@H]2CC[C@H]1N2C (some centres unmarked) [Example 7.1],binding constant on storage of the spin label,[2],the binding constant diminished with time unless the spin label was stored at pH 5 in the absence of any buffer
NC(CCCCNc1ccc([N+](=O)[O-])cc1[N+](=O)[O-])C(=O)O (centres unmarked) [N-epsilon-dinitrophenyllysine],ESR signal on addition to antibodies-labeled hapten complex,[3],an increase in the ESR signal was observed
CCC1(CCC(C)C)C(=O)NC(=O)NC1=O [amobarbital],% Mobilization,[4],16%
same,minimum concentration that could be detected,[5],2.5 µg/mL
CC(N)Cc1ccccc1 (centres unmarked) [amphetamine.HCl],% Mobilization,[6]; 1.7 μg/ml (1.1 × 10^-5 M),26%
CC(N)Cc1ccccc1 (centres unmarked) [amphetamine],recognition by the amphetamine antibody,[6],recognizes
same,peak ratio (amphetamine/saline),"[6]; 10^-3 molar amphetamine, loading ratio 0.95",5
same,mobilization with urine of individuals who indicated taking cross reacting substances,[6],greater than 14%
CC(Cc1ccccc1)N(C)Cc1ccccc1 (centres unmarked) [benzophetamine.HCl],% Mobilization,[6]; 2.5 μg/ml (0.8-2.1 × 10^-5 M),12%
COC(=O)[C@H]1[C@@H](OC(=O)c2ccccc2)C[C@@H]2CC[C@H]1N2C [cocaine],% Mobilization,[7]; 1 μg/ml,49%
same,% Mobilization,[7]; 10 μg/ml,80%
COc1ccc2c3c1O[C@H]1[C@@H](O)C=C[C@H]4[C@@H](C2)N(C)CC[C@@]341 [codeine],% Signal Increase,[8]; [11],75% and 62%
same,detection by the morphine assay,[9],detected by the same procedure
COc1ccc2c(c1)[C@]13CCCC[C@@H]1[C@H](C2)N(C)CC3 [dextromethorphan],% Mobilization,[7]; 10 μg/ml,33%
CCC1(c2ccccc2)CCC(=O)NC1=O (centres unmarked) [glutethimide],% Mobilization,[4],0.5%
CC(=O)Oc1ccc2c3c1O[C@H]1[C@@H](OC(C)=O)C=C[C@H]4[C@@H](C2)N(C)CC[C@@]341 [heroin],% Signal Increase,"[8]; urine of single heroin user, day 2, drug taken on second and fifth days",57%
same,% Signal Increase,"[8]; urine of single heroin user, day 3, drug taken on second and fifth days",32%
same,% Signal Increase,"[8]; urine of single heroin user, day 4, drug taken on second and fifth days",26%
same,% Signal Increase,"[8]; urine of single heroin user, day 5, drug taken on second and fifth days",47%
same,% Signal Increase,"[8]; urine of single heroin user, day 6, drug taken on second and fifth days",26%
same,% Signal Increase,"[8]; urine of single heroin user, day 7, drug taken on second and fifth days",16%
same,% Signal Increase,"[8]; urine of single heroin user, day 8, drug taken on second and fifth days",8%
same,% Signal Increase,"[8]; urine of single heroin user, day 9, drug taken on second and fifth days",40%
same,% Signal Increase,[8]; [11],81% and 100%
CNC(C)(C)Cc1ccccc1 [mephentermine.H2 SO4],% Mobilization,[6]; 2.5 μg/ml (0.8-2.1 × 10^-5 M),28%
CNC(C)(C)Cc1ccccc1 [mephentermine],recognition by the amphetamine antibody,[6],recognizes
same,% Mobilization,[7]; 10 μg/ml,35%
CCC1(c2ccccc2)C(=O)NC(=O)N(C)C1=O (centres unmarked) [mephobarbital],% Mobilization,[4],32%
COc1cc(CCN)cc(OC)c1OC [mescaline],mobilization with urine of individuals who indicated taking cross reacting substances,[6],greater than 14%
CCC(=O)C(CC(C)N(C)C)(c1ccccc1)c1ccccc1 (centres unmarked) [methadone],detection by the morphine assay,[9],insensitive
CNC(C)Cc1ccccc1 (centres unmarked) [methamphetamine.HCl],% Mobilization,[6]; 2.5 μg/ml (0.8-2.1 × 10^-5 M),29%
CN[C@@H](C)Cc1ccccc1 [methamphetamine],recognition by the amphetamine antibody,[6],recognizes
CCC1(CC)C(=O)NC(=O)N(C)C1=O [metharbital],% Mobilization,[4],6%
CN1CC[C@]23c4c5ccc(O[C@@H]6O[C@H](C(=O)O)[C@@H](O)[C@H](O)[C@H]6O)c4O[C@H]2[C@@H](O)C=C[C@H]3[C@H]1C5 [morphine-O^3 -glucuronide],detection by the morphine assay,[9],can also be detected
C=CCN1CC[C@]23c4c5ccc(O)c4O[C@H]2[C@@H](O)C=C[C@H]3[C@H]1C5 [nalorphine],detection by the morphine assay,[9],can also be detected
CCCC(C)C1(CC)C(=O)NC(=O)NC1=O (centres unmarked) [pentobarbital],minimum concentration that could be detected,[5],2 µg/mL
NCCc1ccccc1 [phenethylamine],% Mobilization,[6]; 2.5 μg/ml (0.8-2.1 × 10^-5 M),26%
CCC1(c2ccccc2)C(=O)NC(=O)NC1=O [phenobarbital],% Mobilization,[4],25%
CC(N)C(O)c1ccccc1 (centres unmarked) [phenylpropanolamine.HCl],% Mobilization,[6]; 2.5 μg/ml (0.8-2.1 × 10^-5 M),13%
CC(N)C(O)c1ccccc1 (centres unmarked) [phenylpropanolamine],mobilization with urine of individuals who indicated taking cross reacting substances,[6],greater than 14%
same,% Mobilization,[7]; 10 μg/ml,26%
CNC(C)CC1CCCCC1 (centres unmarked) [propylhexedrine.HCl],% Mobilization,[6]; 250 μg/ml (131 × 10^-5 M),71%
CN[C@@H](C)[C@@H](O)c1ccccc1 [pseudophedrine],mobilization with urine of individuals who indicated taking cross reacting substances,[6],greater than 14%
C=CCC1(C(C)CCC)C(=O)NC(=O)NC1=O (centres unmarked) [secobarbital],% Mobilization,[4],7%
same,sensitivity of the assay,[5],the greatest sensitivity is achieved with secobarbital
CCCC(C)C1(CC)C(=O)NC(=O)NC1=O (centres unmarked) [sodium pentobarbital],% Mobilization,[4],10%
CCC1(c2ccccc2)C(=O)NC(=O)NC1=O [sodium phenobarbital],minimum concentration that could be detected,[5],40 µg/mL
CCCC(C)C1(CC)C(=O)NC(=S)NC1=O (centres unmarked) [thiopental sodium],minimum concentration that could be detected,[5],3.5 µg/mL
CN(C)CCCN1c2ccccc2Sc2ccc(Cl)cc21 [thorazine],% Mobilization,[10],9%
